Results on eleven compounds are retold here after patent US11931356B1, “Compositions and methods for treating human papilloma virus infections” (priority 2022, dated 2024).

In assay [1] the target is HPV-16 E6 protein with Cys51 (Human papillomavirus type 16, UniProt P03126). The assay is classed as binding. The note with it: whole protein mass spectrum.
Assay [2] addresses C51S (cysteine 51 mutation to serine) HPV-16 E6 protein (Human papillomavirus type 16, UniProt P03126, C58S). The assay can be described thus: whole protein mass spectra of mutant C51S HPV-16 E6 protein upon exposure to compound. Conditions: whole protein mass spectrum; cysteine 51 replaced by serine. The assay is classed as binding, human papilloma virus 16.

Chain of HPV-16 E6 protein with Cys51 (P03126 8-158): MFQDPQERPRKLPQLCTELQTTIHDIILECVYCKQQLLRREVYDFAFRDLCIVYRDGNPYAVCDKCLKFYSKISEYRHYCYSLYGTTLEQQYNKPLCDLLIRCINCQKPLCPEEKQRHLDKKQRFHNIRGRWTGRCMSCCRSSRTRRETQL
Chain of C51S (cysteine 51 mutation to serine) HPV-16 E6 protein (P03126 8-158 C58S): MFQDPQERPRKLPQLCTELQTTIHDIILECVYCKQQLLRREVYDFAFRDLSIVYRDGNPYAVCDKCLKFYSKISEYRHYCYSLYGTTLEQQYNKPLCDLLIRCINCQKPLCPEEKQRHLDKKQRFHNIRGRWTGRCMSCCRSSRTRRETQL

Consider `C=CC(=O)N1CCN(c2nc(CCc3ccc(F)c(OC)c3)nc3sc4c(c23)CCCC4)CC1` [Compound 1], for which the “mass shift of the HPV-16 E6 protein upon exposure to compound (covalent bonding at Cys51)” value (shortened to “mass shift … (covalent bonding at Cys51)”) in assay [1] is given as “mass shift”. In assay [2], the “mass shift of the C51S HPV-16 E6 protein upon exposure to compound” value was “lack of mass shift”.

As for `C=CC(=O)N1CCN(c2nc(CCc3ccc(O)c(F)c3)nc3sc4c(c23)CCCC4)CC1` [Compound 2], the “mass shift … (covalent bonding at Cys51)” value in assay [1] was “mass shift”. Also, the “mass shift of the C51S HPV-16 E6 protein upon exposure to compound” value in assay [2] is “lack of mass shift”.

For the compound `C=CC(=O)N1CCN(c2nc(CCc3ccc(F)c(O)c3)nc3sc4c(c23)CCCC4)CC1` [Compound 3], in assay [1], the “mass shift … (covalent bonding at Cys51)” value is “mass shift”. Also, the “mass shift of the C51S HPV-16 E6 protein upon exposure to compound” value in assay [2] is recorded as “lack of mass shift”.

As to `C=CC(=O)N1CCN(c2nc(CCc3cc(F)c(OC)c(F)c3)nc3sc4c(c23)CCCC4)CC1` [Compound 4], the “mass shift … (covalent bonding at Cys51)” value in assay [1] is “mass shift”. Further, the “mass shift of the C51S HPV-16 E6 protein upon exposure to compound” value in assay [2] is “lack of mass shift”.

Take `C=CC(=O)N1CCN(c2nc(CCc3cnc(OC)c(F)c3)nc3sc4c(c23)CCCC4)CC1` [Compound 5]: the “mass shift … (covalent bonding at Cys51)” value in assay [1] is given as “mass shift”. In addition, the “mass shift of the C51S HPV-16 E6 protein upon exposure to compound” value in assay [2] was “lack of mass shift”.

In the case of `C=CC(=O)N1CCN(c2nc(CCc3ccc(OC)c(OC)c3)nc3sc4c(c23)CCCC4)CC1` [Compound 6], in assay [1], the “mass shift … (covalent bonding at Cys51)” value is given as “mass shift”. Moreover, the “mass shift of the C51S HPV-16 E6 protein upon exposure to compound” value in assay [2] is recorded as “lack of mass shift”.

Consider `C=CC(=O)N1CCN(C(=O)CN2CCc3sccc3C2c2cccc3ccccc23)CC1` (stereo not shown) [Compound 7], for which the “mass shift … (covalent bonding at Cys51)” value in assay [1] is listed as “mass shift”. Besides, the “mass shift of the C51S HPV-16 E6 protein upon exposure to compound” value in assay [2] is given as “lack of mass shift”.

For the compound `C=CC(=O)N1CCN(c2nc(C3CCCC3)nc3cccc(F)c23)CC1` [Compound 8], the “mass shift … (covalent bonding at Cys51)” value in assay [1] was “mass shift”. Further, the “mass shift of the C51S HPV-16 E6 protein upon exposure to compound” value in assay [2] is “lack of mass shift”.

Consider `C=CC(=O)N1CCN(C(=O)CN2CCc3sccc3C2c2cccc3ncccc23)CC1` (stereo not shown) [Compound 9], for which the “mass shift … (covalent bonding at Cys51)” value in assay [1] is listed as “mass shift”. In assay [2], the “mass shift of the C51S HPV-16 E6 protein upon exposure to compound” value was “lack of mass shift”.

For `C=CC(=O)N1CCN(c2nc(CCc3ccc(OC)c(F)c3)nc3sc4c(c23)CCCC4)CC1` [Compound 10], in assay [1], the “mass shift … (covalent bonding at Cys51)” value is “mass shift”. Moreover, in assay [2], the “mass shift of the C51S HPV-16 E6 protein upon exposure to compound” value is given as “lack of mass shift”.

For the compound `C=CC(=O)N1CCN(c2nc(CCc3cccc(OC)c3)nc3ccccc23)C(C)C1` (stereo not shown) [Compound 11], the “mass shift … (covalent bonding at Cys51)” value in assay [1] is on record as “mass shift”. Further, the “mass shift of the C51S HPV-16 E6 protein upon exposure to compound” value in assay [2] is given as “lack of mass shift”.
